Assay results: patent publication US11319303B2 (WIGEN BIOMEDICINE TECHNOLOGY (SHANGHAI) CO., LTD., priority 2017, dated 2022)
Structures can show the parent of a compound that is named as a salt.

What follows are compounds tested against LC3B (Homo sapiens, UniProt Q9GZQ8) (assay: Fluorescence Polarization (FP) Assay: displacement of FITC-labeled peptide from GST-LC3B). Settings: not given.
Type: binding
Procedure: The compounds of the present invention for regulating the autophagy-related protein LC3B were tested by Fluorescence Polarization (FP) Assay.
Fluorescence Polarization (FP) Assay Test
For CN(C)CCNC=C1C(=O)CC(c2cccc(F)c2Cl)CC1=O (stereo not shown) [Compound 410], the IC50 was < 3 µM.

Same assay, conditions: Fluorescence Polarization assay; GST-LC3B 180 nM, FITC-labeled peptide 18 nM, 25° C.; read-out: IC50
With O=C1CC(C2CC2)CC(=O)C1=CNCCN1CCN(CCO)CC1 (stereo not shown) [Compound 67, 5-cyclopropyl-2-(((2-(4-(2-hydroxyethyl)piperazin-1-yl)ethyl)amino)methylene) cyclohexane-1,3-dione] the IC50 was 100 to 1000 µM. For O=C1Oc2ccc(-c3ccccc3)cc2C(=O)C1=CNCCN1CCN(CCO)CC1 [Compound 156, 3-(((2-(4-(2-hydroxyethyl)piperazin-1-yl)ethyl)amino)methylene)-6-phenylchromane-2,4-dione], the IC50 was 3 to 15 µM. With CN(C)CCNC=C1C(=O)CC(c2c(Br)ccc(F)c2F)CC1=O (stereo not shown) [Compound 409] the IC50 was < 3 µM. Work on CSc1ccc(C2CC(=O)C(=CO)C(=O)C2)cc1 (stereo not shown) [Compound 440, 5-(4-methylthiophenyl)-2-(hydroxymethylene) cyclohexane-1,3-dione] yielded an IC50 of 3 to 15 µM. O=C1CC(c2ccsc2)CC(=O)C1=CO (stereo not shown) [Compound 456, 2-(hydroxy-methylene)-5-(3-thiophen)cyclo-hexane-1,3-dione lithium salt] was tested, and the IC50 was 3 to 15 µM. For N#Cc1ccc(C2CC(=O)C(=CO)C(=O)C2)cc1 (stereo not shown) [Compound 425, 2-(hydroxymethylene)-5-(4-cyanophenyl)cyclo-hexane-1,3-dione], the IC50 was 15 to 100 µM. For CN(C)C=C1C(=O)CC(c2cccc(C(=O)NCCc3ccccc3)c2)CC1=O (stereo not shown) [Compound 267, 3-(4-((dimethylamino)methylene)-3,5-dioxocyclohexyl)-N-phenethylbenzamide], the IC50 was 3 to 15 µM. Compound O=C1CC(c2ccccc2)CC(=O)C1=CNCc1cc2ccccc2[nH]1 (stereo not shown) [Compound 205, 2-((((1H-indol-2-yl)methyl)amino)methylene)-5-phenylcyclohexane-1,3-dione] has an IC50 of 100 to 1000 µM. For O=C1CC(c2c[nH]c3ccccc23)CC(=O)C1=CO (stereo not shown) [Compound 430, 2-(hydroxymethylene)-5-(1H-indol-3-yl)cyclohexane-1,3-dione], the IC50 was < 3 µM. O=C1CC(C(=O)N2CCOCC2)CC(=O)C1=CNCCN1CCN(CCO)CC1 (stereo not shown) [Compound 106, 2-(((2-(4-(2-hydroxyethyl)piperazin-1-yl)ethyl)amino)methylene)-5-(morpholine-4-carbonyl)cyclohexane-1,3-dione] showed an IC50 of 100 to 1000 µM. In the case of O=C1CC(c2c(Cl)cccc2Cl)CC(=O)C1=CO (stereo not shown) [Compound 420, 2-(hydroxymethylene)-5-(2,6-dichlorophenyl)cyclo-hexane-1,3-dione], the IC50 is reported as < 3 µM. CN(C)CCNC=C1C(=O)CC(c2ccccc2N2CCOCC2)CC1=O (stereo not shown) [Compound 344] was tested, and the IC50 was 3 to 15 µM. Work on O=C1CCCCC(=O)C1=CNCCN1CCN(CCO)CC1 [Compound 352, 2-(((2-(4-(2-hydroxyethyl)piperazin-1-yl)ethyl)amino)methylene) cycloheptane-1,3-dione] yielded an IC50 of 100 to 1000 µM. In the case of O=C1CC(c2cccc3[nH]c(Br)c(Cl)c23)CC(=O)C1=CNCCN1CCN(CCO)CC1 (stereo not shown) [Compound 405, 5-(2-bromo-3-chloro-1H-indol-4-yl)-2-(((2-(4-(2-ethoxyl)piperazin-1-yl)ethyl)amino)methylene) cyclohexane-1-1,3-dione], the IC50 is reported as < 3 µM. CN(C)CCNC=C1C(=O)CC(c2c(C(F)(F)F)ccc(Cl)c2F)CC1=O (stereo not shown) [Compound 378, 5-(3-chloro-2-fluoro-6-(trifluoromethyl)phenyl)-2-(((2-(dimethylamino)ethyl)amino)methylene) cyclohexane-1,3-dione] was tested, and the IC50 was < 3 µM. In the case of O=C1CC(c2ccc(Sc3ccccc3)cc2)CC(=O)C1=CNCCN1CCN(CCO)CC1 (stereo not shown) [Compound 21, 2-(((2-(4-(2-hydroxyethyl)piperazin-1-yl)ethyl)amino)methylene)-5-(4-(phenylthio)phenyl) cyclohexane-1,3-dione], the IC50 is reported as 15 to 100 µM. Work on CC(C)CNC(=O)C1CC(=O)C(=CN(C)C)C(=O)C1 (stereo not shown) [Compound 273, 4-((dimethylamino)methylene)-N-isobutyl-3,5-dioxocyclohexane-1-carboxamide] yielded an IC50 of 15 to 100 µM. COC(=O)CNC=C1C(=O)CC(c2ccccc2)CC1=O (stereo not shown) [Compound 129, methyl ((2,6-dioxo-4-phenylcyclo-hexylidene)methyl)glycinate] gave an IC50 of 15 to 100 µM.
